Test: Stability in C57BL/6J mouse microsomes
Type: ADME, Microsome

| Compound | Stability [%] |
| --- | --- |
| CS(=O)(=O)c1ccc([C@@H](C[C@H]2CCC(=O)C2)C(=O)Nc2cnccn2)cc1Cl [PIRAGLIATIN] | 85 |
| C[S+]([O-])c1ccc(C(CC2CCCC2)c2cc3cccnc3[nH]2)cc1Cl (stereo in doubt; 16a) | 50 |
| C[S+]([O-])c1ccc(C(CC2CCCC2)c2cc3cccnc3[nH]2)cc1Cl (stereo in doubt; 16c) | 40 |

From ChEMBL document CHEMBL3763030, “Structure-Activity Relationship of Azaindole-Based Glucokinase Activators” (J Med Chem, 2016)
